Source: PubChem BioAssay AID248 (DTP/NCI, 2004)
Where “and” joins values, the source holds several entries; their conditions need not be identical. Identical values can stand only once. Inconclusive results and toxic doses are left out.

Tested on: L1210 leukemia ip in BDF1 mice, survival T/C
Assay: NCI In Vivo Anticancer Drug Screen. Data for tumor model L1210 Leukemia (intraperitoneal) in B6D2F1 (BDF1) mice
Conditions: endpoint: mean survival time, higher = longer survival
Summary of the method: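 Mice bearing the transplanted tumor received compound or vehicle. Survival of the treated group was divided by that of the vehicle-treated control group to give the ratio.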

[1] = dose: 100.0 mg/kg/injection, schedule: Q01DX001 (ip), vehicle: saline
[2] = dose: 100.0 mg/kg/injection, schedule: Q04DX003 (ip), vehicle: saline
[3] = dose: 200.0 mg/kg/injection, schedule: Q01DX001 (ip), vehicle: saline
[4] = dose: 200.0 mg/kg/injection, schedule: Q04DX003 (ip), vehicle: saline
[5] = dose: 400.0 mg/kg/injection, schedule: Q01DX001 (ip), vehicle: saline
[6] = dose: 400.0 mg/kg/injection, schedule: Q04DX003 (ip), vehicle: saline
[7] = dose: 100.0 mg/kg/injection, schedule: Q01DX009 (ip), vehicle: saline with Tween-80
[8] = dose: 200.0 mg/kg/injection, schedule: Q01DX009 (ip), vehicle: saline with Tween-80
[9] = dose: 100.0 mg/kg/injection, schedule: Q04DX002 (ip), vehicle: Klucel (hydroxypropylcellulose) (HPC)
[10] = dose: 200.0 mg/kg/injection, schedule: Q04DX002 (ip), vehicle: Klucel (hydroxypropylcellulose) (HPC)
[11] = dose: 400.0 mg/kg/injection, schedule: Q04DX002 (ip), vehicle: Klucel (hydroxypropylcellulose) (HPC)

## CCOC(=O)C1C(=O)CC(C)(O)C(C(=O)OCC)C1c1ccccc1 (configuration not stated)
[1]
  T/C: 98 % of control
[2]
  T/C: 104 % of control
[3]
  T/C: 106 % of control
[4]
  T/C: 100 % of control
[5]
  T/C: 109 % of control
[6]
  T/C: 94 % of control

## CC12CCC(C3=C1OC(=O)C(c1ccccc1)(c1ccccc1)C3=O)C2(C)C (configuration not stated)
[1]
  T/C: 105 % of control
dose: 100.0 mg/kg/injection, schedule: Q01DX009 (ip), vehicle: saline
  T/C: 94 % of control
[2]
  T/C: 103 % of control
[3]
  T/C: 113 % of control
dose: 200.0 mg/kg/injection, schedule: Q01DX009 (ip), vehicle: saline
  T/C: 102 % of control
[4]
  T/C: 97 % of control
[5]
  T/C: 97 % of control
dose: 400.0 mg/kg/injection, schedule: Q01DX009 (ip), vehicle: saline
  T/C: 100 % of control
[6]
  T/C: 103 % of control

## CCOC(=O)c1ccc(NC(=O)Oc2ccc3ccccc3c2)cc1
dose: 100.0 mg/kg/injection, schedule: Q01DX001 (ip), vehicle: saline with Tween-80
  T/C: 96 % of control
[7]
  T/C: 100 % of control and 90 % of control
dose: 100.0 mg/kg/injection, schedule: Q04DX002 (ip), vehicle: saline with Tween-80
  T/C: 99 % of control and 88 % of control
dose: 200.0 mg/kg/injection, schedule: Q01DX001 (ip), vehicle: saline with Tween-80
  T/C: 93 % of control and 86 % of control
[8]
  T/C: 92 % of control and 100 % of control
dose: 200.0 mg/kg/injection, schedule: Q04DX002 (ip), vehicle: saline with Tween-80
  T/C: 97 % of control and 91 % of control
dose: 400.0 mg/kg/injection, schedule: Q01DX001 (ip), vehicle: saline with Tween-80
  T/C: 93 % of control and 91 % of control
dose: 400.0 mg/kg/injection, schedule: Q01DX009 (ip), vehicle: saline with Tween-80
  T/C: 100 % of control and 90 % of control
dose: 400.0 mg/kg/injection, schedule: Q04DX002 (ip), vehicle: saline with Tween-80
  T/C: 92 % of control and 88 % of control

## c1ccc(CCN2CCCC2)nc1
dose: 12.5 mg/kg/injection, schedule: Q04DX002 (ip), vehicle: saline with Tween-80
  T/C: 103 % of control
dose: 25.0 mg/kg/injection, schedule: Q04DX002 (ip), vehicle: saline with Tween-80
  T/C: 98 % of control

## O=C(COc1cc(Cl)c(Cl)cc1Cl)NCCO
[9]
  T/C: 92 % of control
[10]
  T/C: 110 % of control
[11]
  T/C: 108 % of control

## CN(N=O)C(=O)NCCCNC(=O)N(C)N=O
dose: 6.25 mg/kg/injection, schedule: Q01DX Z (ip), vehicle: carboxymethylcellulose (CMC)
  T/C: 118 % of control
dose: 12.5 mg/kg/injection, schedule: Q01DX Z (ip), vehicle: carboxymethylcellulose (CMC)
  T/C: 101 % of control
dose: 25.0 mg/kg/injection, schedule: Q01DX Z (ip), vehicle: carboxymethylcellulose (CMC)
  T/C: 112 % of control
dose: 100.0 mg/kg/injection, schedule: Q01DX Z (ip), vehicle: carboxymethylcellulose (CMC)
  T/C: 200 % of control
dose: 150.0 mg/kg/injection, schedule: Q01DX001 (ip), vehicle: carboxymethylcellulose (CMC)
  T/C: 120 % of control
dose: 150.0 mg/kg/injection, schedule: Q01DX001 (ip), vehicle: saline
  T/C: 102 % of control
dose: 250.0 mg/kg/injection, schedule: Q01DX Z (ip), vehicle: carboxymethylcellulose (CMC)
  T/C: 121 % of control
dose: 300.0 mg/kg/injection, schedule: Q01DX001 (ip), vehicle: carboxymethylcellulose (CMC)
  T/C: 123 % of control
dose: 300.0 mg/kg/injection, schedule: Q01DX001 (ip), vehicle: saline
  T/C: 112 % of control
dose: 300.0 mg/kg/injection, schedule: Q01DX Z (ip), vehicle: carboxymethylcellulose (CMC)
  T/C: 90 % of control
dose: 600.0 mg/kg/injection, schedule: Q01DX001 (ip), vehicle: saline
  T/C: 109 % of control

## O=C(Nc1cccc(C(F)(F)F)c1)c1ccco1
dose: 100.0 mg/kg/injection, schedule: Q01DX009 (ip), vehicle: Klucel (hydroxypropylcellulose) (HPC)
  T/C: 93 % of control
[9]
  T/C: 106 % of control
dose: 200.0 mg/kg/injection, schedule: Q01DX009 (ip), vehicle: Klucel (hydroxypropylcellulose) (HPC)
  T/C: 96 % of control
[10]
  T/C: 95 % of control
dose: 400.0 mg/kg/injection, schedule: Q01DX009 (ip), vehicle: Klucel (hydroxypropylcellulose) (HPC)
  T/C: 109 % of control
[11]
  T/C: 104 % of control

## O=C1c2ccccc2C(=O)N1CCCCCCCCCN1C(=O)c2ccccc2C1=O
[9]
  T/C: 113 % of control
[10]
  T/C: 90 % of control
[11]
  T/C: 90 % of control

## O=C(C=C(C(F)(F)F)C(F)(F)F)c1ccccc1[N+](=O)[O-]
dose: 6.25 mg/kg/injection, schedule: Q01DX009 (ip), vehicle: other
  T/C: 96 % of control
dose: 12.5 mg/kg/injection, schedule: Q01DX009 (ip), vehicle: other
  T/C: 102 % of control
dose: 25.0 mg/kg/injection, schedule: Q01DX009 (ip), vehicle: other
  T/C: 102 % of control

## COc1ccc(OC)c(NC(=S)NC(=O)c2ccccc2F)c1
[7]
  T/C: 94 % of control
[8]
  T/C: 86 % of control

## CCCCC(C#N)C(=O)OCC (configuration not stated)
dose: 100.0 mg/kg/injection, schedule: Q04DX003 (ip), vehicle: Klucel (hydroxypropylcellulose) (HPC)
  T/C: 97 % of control
dose: 200.0 mg/kg/injection, schedule: Q04DX003 (ip), vehicle: Klucel (hydroxypropylcellulose) (HPC)
  T/C: 94 % of control
dose: 400.0 mg/kg/injection, schedule: Q04DX003 (ip), vehicle: Klucel (hydroxypropylcellulose) (HPC)
  T/C: 87 % of control
